Assay results: PubChem BioAssay (NCI)
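Compound exposure: 48 hours, 5 concentrations, 96-well plates. GI50 marks 50% less growth. At the TGI there is no net growth.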

Key:
Assay in all cases: growth of human tumour cells (NCI), 48 h
UACC-257 melanoma = system: UACC-257 melanoma
HL-60(TB) leukemia = system: HL-60(TB) leukemia
SNB-19 CNS = system: SNB-19 CNS
HOP-62 NSCLC = system: HOP-62 NSCLC
SK-MEL-28 melanoma = system: SK-MEL-28 melanoma
CAKI-1 renal = system: CAKI-1 renal
CCRF-CEM leukemia = system: CCRF-CEM leukemia
SK-OV-3 ovarian = system: SK-OV-3 ovarian
A498 renal = system: A498 renal
NCI/ADR-RES ovarian = system: NCI/ADR-RES ovarian
SF-295 CNS = system: SF-295 CNS
K-562 leukemia = system: K-562 leukemia
OVCAR-3 ovarian = system: OVCAR-3 ovarian
NCI-H522 lung = system: NCI-H522 lung
SF-539 CNS = system: SF-539 CNS
OVCAR-4 ovarian = system: OVCAR-4 ovarian
SNB-75 CNS = system: SNB-75 CNS
SK-MEL-5 melanoma = system: SK-MEL-5 melanoma
TK-10 renal = system: TK-10 renal
HCT-15 colon = system: HCT-15 colon
NCI-H23 lung = system: NCI-H23 lung
NCI-H226 lung = system: NCI-H226 lung
MCF7 breast = system: MCF7 breast
M14 melanoma = system: M14 melanoma
SR leukemia = system: SR leukemia
RXF 393 renal = system: RXF 393 renal
UO-31 renal = system: UO-31 renal
BT-549 breast = system: BT-549 breast
LOX IMVI melanoma = system: LOX IMVI melanoma
HOP-92 NSCLC = system: HOP-92 NSCLC
COLO 205 colon = system: COLO 205 colon
HCT-116 colon = system: HCT-116 colon
HT29 colon = system: HT29 colon
IGROV1 ovarian = system: IGROV1 ovarian
786-0 renal = system: 786-0 renal
KM12 colon = system: KM12 colon
MDA-MB-435 = system: MDA-MB-435
HS 578T breast = system: HS 578T breast
SF-268 CNS = system: SF-268 CNS
NCI-H460 lung = system: NCI-H460 lung
OVCAR-8 ovarian = system: OVCAR-8 ovarian
A549 NSCLC = system: A549 NSCLC
MALME-3M melanoma = system: MALME-3M melanoma
MOLT-4 leukemia = system: MOLT-4 leukemia
SK-MEL-2 melanoma = system: SK-MEL-2 melanoma
RPMI-8226 leukemia = system: RPMI-8226 leukemia
ACHN renal = system: ACHN renal
PC-3 prostate = system: PC-3 prostate
UACC-62 melanoma = system: UACC-62 melanoma
U251 CNS = system: U251 CNS
SN12C renal = system: SN12C renal
SW-620 colon = system: SW-620 colon
EKVX NSCLC = system: EKVX NSCLC
HCC-2998 colon = system: HCC-2998 colon
T-47D breast = system: T-47D breast
OVCAR-5 ovarian = system: OVCAR-5 ovarian
MDA-MB-231 breast = system: MDA-MB-231 breast
DU-145 prostate = system: DU-145 prostate

## COc1cc2nc3cc([N+](=O)[O-])ccc3c(NCCCNCC(C)(C)O)c2cc1OC
UACC-257 melanoma
  GI50: 1620 nM
  TGI: 3100 nM
HL-60(TB) leukemia
  GI50: 694 nM
  TGI: 2950 nM
SNB-19 CNS
  GI50: 303 nM
  TGI: 1410 nM
HOP-62 NSCLC
  GI50: 169 nM
  TGI: 708 nM
SK-MEL-28 melanoma
  GI50: 839 nM
  TGI: 2500 nM
CAKI-1 renal
  GI50: 1950 nM
  TGI: 10200 nM
CCRF-CEM leukemia
  GI50: 502 nM
  TGI: 3980 nM
SK-OV-3 ovarian
  GI50: 506 nM
  TGI: 2590 nM
A498 renal
  GI50: 216 nM
  TGI: 1330 nM
NCI/ADR-RES ovarian
  GI50: 10500 nM
  TGI: 25300 nM
SF-295 CNS
  GI50: 501 nM
  TGI: 2430 nM
K-562 leukemia
  GI50: 299 nM
  TGI: 1680 nM
OVCAR-3 ovarian
  GI50: 330 nM
  TGI: 1030 nM
NCI-H522 lung
  GI50: 181 nM
  TGI: 425 nM
SF-539 CNS
  GI50: 505 nM
  TGI: 2580 nM
OVCAR-4 ovarian
  GI50: 198 nM
  TGI: 777 nM
SNB-75 CNS
  GI50: 300 nM
  TGI: 1610 nM
SK-MEL-5 melanoma
  GI50: 520 nM
  TGI: 1760 nM
TK-10 renal
  GI50: 500 nM
  TGI: 2490 nM
HCT-15 colon
  GI50: 1300 nM
  TGI: 8290 nM
NCI-H23 lung
  GI50: 196 nM
  TGI: 543 nM
NCI-H226 lung
  GI50: 771 nM
  TGI: 2890 nM
MCF7 breast
  GI50: 208 nM
  TGI: 1160 nM
M14 melanoma
  GI50: 352 nM
  TGI: 1500 nM
SR leukemia
  GI50: 321 nM
  TGI: 3060 nM
RXF 393 renal
  GI50: 297 nM
  TGI: 1240 nM
UO-31 renal
  GI50: 1460 nM
  TGI: 5140 nM
BT-549 breast
  GI50: 1750 nM
  TGI: 3320 nM
LOX IMVI melanoma
  GI50: 208 nM
  TGI: 485 nM
HOP-92 NSCLC
  GI50: 225 nM
  TGI: 726 nM
COLO 205 colon
  GI50: 176 nM
  TGI: 442 nM
HCT-116 colon
  GI50: 299 nM
  TGI: 1040 nM
HT29 colon
  GI50: 212 nM
  TGI: 586 nM
IGROV1 ovarian
  GI50: 350 nM
  TGI: 1300 nM
786-0 renal
  GI50: 277 nM
  TGI: 1220 nM
KM12 colon
  GI50: 410 nM
  TGI: 1600 nM
MDA-MB-435
  GI50: 400 nM
  TGI: 1550 nM
HS 578T breast
  GI50: 511 nM
  TGI: 5390 nM
SF-268 CNS
  GI50: 308 nM
  TGI: 1260 nM
NCI-H460 lung
  GI50: 299 nM
  TGI: 1040 nM
OVCAR-8 ovarian
  GI50: 304 nM
  TGI: 1820 nM
A549 NSCLC
  GI50: 320 nM
  TGI: 1170 nM
MALME-3M melanoma
  GI50: 315 nM
  TGI: 872 nM
MOLT-4 leukemia
  GI50: 372 nM
  TGI: 6670 nM
SK-MEL-2 melanoma
  GI50: 234 nM
  TGI: 518 nM
RPMI-8226 leukemia
  GI50: 565 nM
  TGI: 4010 nM
ACHN renal
  GI50: 576 nM
  TGI: 6070 nM
PC-3 prostate
  GI50: 322 nM
  TGI: 1110 nM
UACC-62 melanoma
  GI50: 214 nM
  TGI: 580 nM
U251 CNS
  GI50: 303 nM
  TGI: 1010 nM
SN12C renal
  GI50: 232 nM
  TGI: 1110 nM
SW-620 colon
  GI50: 301 nM
  TGI: 1510 nM
EKVX NSCLC
  GI50: 1210 nM
  TGI: 3970 nM
HCC-2998 colon
  GI50: 233 nM
  TGI: 620 nM
T-47D breast
  GI50: 237 nM
  TGI: 756 nM
OVCAR-5 ovarian
  GI50: 465 nM
  TGI: 3390 nM
MDA-MB-231 breast
  GI50: 222 nM
  TGI: 900 nM
DU-145 prostate
  GI50: 324 nM
  TGI: 1110 nM
